The source of these data is publication PMC7827406, “Structure–Activity Relationship (SAR) Study of Spautin-1 to Entail the Discovery of Novel NEK4 Inhibitors” (International Journal of Molecular Sciences, 2021).

SMILES strings stand for the structures. Where two headings read alike, the source gives them in different places.

Assay in all cases: biochemical
What all share (set-up): Eurofins KinaseProfiler full panel at Km ATP, residual kinase activity (%) relative to DMSO

One experiment concerns the target T1, AMPKα1(h) (Homo sapiens, UniProt Q13131).
T1 construct: gene PRKAA1
Put shortly: (§1)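 Compounds screened at 10 µM in radiometric kinase activity assays at Km ATP, reported as remaining kinase activity (%). A KINOMEscan competition-binding screen at 10 µM measured DNA-tagged kinase retained on immobilized active-site ligand by qPCR.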

The next experiment concerns the target T2, MEKK3(h) (Homo sapiens, UniProt Q99759).
T2 construct: gene MAP3K3
T2 sequence (Q99759 1-626): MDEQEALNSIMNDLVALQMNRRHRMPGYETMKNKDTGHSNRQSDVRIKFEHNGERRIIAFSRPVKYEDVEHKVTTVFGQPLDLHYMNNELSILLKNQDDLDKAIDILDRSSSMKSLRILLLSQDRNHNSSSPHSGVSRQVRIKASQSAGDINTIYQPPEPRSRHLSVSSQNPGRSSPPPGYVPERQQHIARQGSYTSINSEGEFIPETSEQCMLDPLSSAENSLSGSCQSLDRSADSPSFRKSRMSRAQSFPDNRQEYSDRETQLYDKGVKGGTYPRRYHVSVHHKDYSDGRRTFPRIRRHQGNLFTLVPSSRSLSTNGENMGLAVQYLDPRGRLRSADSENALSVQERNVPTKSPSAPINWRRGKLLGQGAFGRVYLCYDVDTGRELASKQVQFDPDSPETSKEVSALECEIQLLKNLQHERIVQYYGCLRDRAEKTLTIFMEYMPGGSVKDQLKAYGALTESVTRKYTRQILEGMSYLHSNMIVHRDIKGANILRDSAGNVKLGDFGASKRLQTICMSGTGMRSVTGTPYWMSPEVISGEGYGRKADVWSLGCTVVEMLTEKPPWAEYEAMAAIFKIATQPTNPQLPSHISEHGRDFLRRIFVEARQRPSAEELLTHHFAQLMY
In a few lines:
as §1

The target in a further experiment is PAK2(h) (Homo sapiens, UniProt Q13177). Put shortly:
as §1

The target of experiment [1] is T3, PI3 Kinase (p110a/p65a)(m) (Mus musculus, UniProt P42337).
T3 construct: gene Pik3ca; with p65a
Put shortly:
as §1

Experiment [2] addresses T4, PI3 Kinase (p110d/p85a)(h) (Homo sapiens, UniProt O00329).
T4 construct: gene PIK3CD
In a few lines: as §1

In the next experiment the target is T5, Pim-3(h) (Homo sapiens, UniProt Q86V86).
T5 construct: gene PIM3
Put shortly:
as §1

A further experiment deals with T6, Rsk4(h) (Homo sapiens, UniProt Q9UK32).
T6 construct: gene RPS6KA6
Put shortly: as §1

Another experiment addresses T7, ZAP-70(h) (Homo sapiens, UniProt P43403).
T7 construct: gene ZAP70
T7 sequence (P43403 1-619): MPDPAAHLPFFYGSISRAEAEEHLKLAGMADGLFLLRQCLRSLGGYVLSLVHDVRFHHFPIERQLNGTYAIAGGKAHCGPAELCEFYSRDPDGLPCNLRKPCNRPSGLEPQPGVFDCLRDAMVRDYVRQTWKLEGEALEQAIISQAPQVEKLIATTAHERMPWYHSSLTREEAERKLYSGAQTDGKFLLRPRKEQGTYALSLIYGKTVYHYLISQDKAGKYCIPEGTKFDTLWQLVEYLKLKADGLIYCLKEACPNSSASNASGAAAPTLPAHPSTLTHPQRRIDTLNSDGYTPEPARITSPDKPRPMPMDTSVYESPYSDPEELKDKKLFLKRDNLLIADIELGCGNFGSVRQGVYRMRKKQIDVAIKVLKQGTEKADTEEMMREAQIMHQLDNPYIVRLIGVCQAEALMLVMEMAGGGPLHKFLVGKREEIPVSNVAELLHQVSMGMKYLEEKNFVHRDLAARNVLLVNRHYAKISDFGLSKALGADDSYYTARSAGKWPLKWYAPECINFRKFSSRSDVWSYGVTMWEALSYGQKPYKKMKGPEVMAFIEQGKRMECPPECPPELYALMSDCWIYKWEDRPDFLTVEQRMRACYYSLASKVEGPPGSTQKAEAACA
In a few lines:
as §1

[3] abbreviates: read-out: Residual activity (%) 5at.
Where [4] appears, read: read-out: Residual activity (%) 5ay.
Where [5] appears, read: read-out: Residual activity (%) 5as.
The mark [6] stands for this setting: read-out: Residual activity (%) Spautin-1 5aa.

PAK2(h), sequence (Q13177 whole entry): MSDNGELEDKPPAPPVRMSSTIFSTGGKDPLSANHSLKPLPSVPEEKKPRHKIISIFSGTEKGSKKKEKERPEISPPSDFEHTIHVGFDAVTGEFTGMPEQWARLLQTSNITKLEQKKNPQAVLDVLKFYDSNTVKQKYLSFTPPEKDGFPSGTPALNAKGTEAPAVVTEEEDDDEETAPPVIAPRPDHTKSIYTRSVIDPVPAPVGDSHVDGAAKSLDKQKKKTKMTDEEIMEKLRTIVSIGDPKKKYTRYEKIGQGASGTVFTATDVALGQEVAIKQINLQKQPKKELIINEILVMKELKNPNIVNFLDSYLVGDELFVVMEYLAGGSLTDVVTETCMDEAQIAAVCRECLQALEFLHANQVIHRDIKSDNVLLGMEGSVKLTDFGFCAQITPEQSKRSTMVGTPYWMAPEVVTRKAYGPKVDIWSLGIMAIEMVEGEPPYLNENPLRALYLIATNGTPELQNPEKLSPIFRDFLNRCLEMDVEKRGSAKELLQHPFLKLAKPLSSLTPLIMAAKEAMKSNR
T6 sequence (Q9UK32 whole entry): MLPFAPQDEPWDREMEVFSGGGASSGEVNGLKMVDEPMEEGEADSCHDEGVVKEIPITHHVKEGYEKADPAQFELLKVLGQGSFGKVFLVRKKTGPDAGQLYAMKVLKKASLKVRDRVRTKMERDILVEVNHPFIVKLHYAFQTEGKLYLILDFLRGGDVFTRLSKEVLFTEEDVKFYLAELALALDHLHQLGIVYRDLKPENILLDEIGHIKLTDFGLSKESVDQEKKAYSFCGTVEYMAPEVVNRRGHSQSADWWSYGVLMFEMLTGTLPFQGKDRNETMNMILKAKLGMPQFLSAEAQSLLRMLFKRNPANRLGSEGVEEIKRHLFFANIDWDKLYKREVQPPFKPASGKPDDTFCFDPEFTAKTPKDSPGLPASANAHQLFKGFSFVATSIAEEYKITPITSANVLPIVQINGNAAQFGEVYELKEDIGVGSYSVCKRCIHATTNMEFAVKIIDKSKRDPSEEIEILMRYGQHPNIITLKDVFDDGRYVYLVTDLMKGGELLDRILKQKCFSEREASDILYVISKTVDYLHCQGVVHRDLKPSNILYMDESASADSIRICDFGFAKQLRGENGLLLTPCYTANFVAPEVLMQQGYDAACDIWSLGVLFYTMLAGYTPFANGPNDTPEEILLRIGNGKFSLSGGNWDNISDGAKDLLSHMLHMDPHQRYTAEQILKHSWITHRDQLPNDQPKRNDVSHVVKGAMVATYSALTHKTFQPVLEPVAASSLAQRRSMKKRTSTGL
T1 sequence (Q13131 whole entry): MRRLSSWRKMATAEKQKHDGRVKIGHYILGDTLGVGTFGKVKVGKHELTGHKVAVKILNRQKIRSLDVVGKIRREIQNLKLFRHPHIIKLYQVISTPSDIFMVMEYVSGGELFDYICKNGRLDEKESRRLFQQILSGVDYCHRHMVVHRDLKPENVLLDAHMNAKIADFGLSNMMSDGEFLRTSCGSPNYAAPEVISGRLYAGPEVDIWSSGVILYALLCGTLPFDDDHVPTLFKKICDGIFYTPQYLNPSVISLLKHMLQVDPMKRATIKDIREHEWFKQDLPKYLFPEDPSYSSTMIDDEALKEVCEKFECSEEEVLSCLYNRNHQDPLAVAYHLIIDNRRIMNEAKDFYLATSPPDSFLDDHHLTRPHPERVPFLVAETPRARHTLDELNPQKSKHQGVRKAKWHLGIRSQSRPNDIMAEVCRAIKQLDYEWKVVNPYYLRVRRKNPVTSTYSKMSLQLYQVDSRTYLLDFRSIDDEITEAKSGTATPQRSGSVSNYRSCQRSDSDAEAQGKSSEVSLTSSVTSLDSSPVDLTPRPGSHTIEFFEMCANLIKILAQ
T1 sequence (P54619 whole entry partner): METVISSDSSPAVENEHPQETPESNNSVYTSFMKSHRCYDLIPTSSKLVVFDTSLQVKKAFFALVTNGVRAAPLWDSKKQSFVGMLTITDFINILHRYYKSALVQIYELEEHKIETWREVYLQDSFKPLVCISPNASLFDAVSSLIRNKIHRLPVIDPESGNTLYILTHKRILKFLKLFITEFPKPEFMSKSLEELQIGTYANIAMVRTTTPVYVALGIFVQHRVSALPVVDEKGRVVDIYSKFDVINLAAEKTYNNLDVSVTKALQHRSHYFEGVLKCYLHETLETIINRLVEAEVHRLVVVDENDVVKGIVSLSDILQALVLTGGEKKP
T1 sequence (Q9Y478 whole entry partner): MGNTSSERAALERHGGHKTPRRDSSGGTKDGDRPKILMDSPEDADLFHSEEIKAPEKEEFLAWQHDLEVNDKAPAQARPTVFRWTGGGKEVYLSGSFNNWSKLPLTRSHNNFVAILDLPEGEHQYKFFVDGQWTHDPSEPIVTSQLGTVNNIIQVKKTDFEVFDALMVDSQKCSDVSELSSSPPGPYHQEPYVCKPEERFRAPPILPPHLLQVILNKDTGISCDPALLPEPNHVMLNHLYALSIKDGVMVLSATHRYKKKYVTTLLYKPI
T3 sequence (P42337 whole entry): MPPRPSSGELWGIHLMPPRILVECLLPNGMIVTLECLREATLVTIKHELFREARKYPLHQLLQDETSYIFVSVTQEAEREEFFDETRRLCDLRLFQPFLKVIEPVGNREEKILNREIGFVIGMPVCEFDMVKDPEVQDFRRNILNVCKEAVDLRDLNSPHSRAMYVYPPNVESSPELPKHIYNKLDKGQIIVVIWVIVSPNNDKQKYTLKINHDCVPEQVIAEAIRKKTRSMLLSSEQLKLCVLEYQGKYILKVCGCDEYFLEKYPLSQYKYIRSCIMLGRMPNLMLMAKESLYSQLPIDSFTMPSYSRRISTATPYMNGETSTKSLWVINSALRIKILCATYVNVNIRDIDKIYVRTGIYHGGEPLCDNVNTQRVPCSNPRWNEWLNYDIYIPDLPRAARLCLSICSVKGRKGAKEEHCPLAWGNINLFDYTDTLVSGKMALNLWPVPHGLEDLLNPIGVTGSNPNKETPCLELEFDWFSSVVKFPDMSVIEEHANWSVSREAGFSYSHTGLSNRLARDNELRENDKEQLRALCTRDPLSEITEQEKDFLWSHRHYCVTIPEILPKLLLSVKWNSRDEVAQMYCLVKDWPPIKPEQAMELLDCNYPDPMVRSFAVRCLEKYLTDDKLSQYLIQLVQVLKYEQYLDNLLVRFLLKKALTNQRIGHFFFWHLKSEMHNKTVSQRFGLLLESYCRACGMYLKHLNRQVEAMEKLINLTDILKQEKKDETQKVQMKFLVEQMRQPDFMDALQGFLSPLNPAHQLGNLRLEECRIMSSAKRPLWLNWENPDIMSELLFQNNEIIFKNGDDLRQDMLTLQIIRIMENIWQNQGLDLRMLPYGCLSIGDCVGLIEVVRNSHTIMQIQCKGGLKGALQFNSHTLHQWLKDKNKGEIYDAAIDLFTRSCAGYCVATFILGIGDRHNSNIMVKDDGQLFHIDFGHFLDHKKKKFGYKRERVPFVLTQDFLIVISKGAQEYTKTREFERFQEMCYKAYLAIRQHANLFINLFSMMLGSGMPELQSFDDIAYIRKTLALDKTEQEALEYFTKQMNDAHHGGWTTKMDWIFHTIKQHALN
T3 sequence (P26450 whole entry partner): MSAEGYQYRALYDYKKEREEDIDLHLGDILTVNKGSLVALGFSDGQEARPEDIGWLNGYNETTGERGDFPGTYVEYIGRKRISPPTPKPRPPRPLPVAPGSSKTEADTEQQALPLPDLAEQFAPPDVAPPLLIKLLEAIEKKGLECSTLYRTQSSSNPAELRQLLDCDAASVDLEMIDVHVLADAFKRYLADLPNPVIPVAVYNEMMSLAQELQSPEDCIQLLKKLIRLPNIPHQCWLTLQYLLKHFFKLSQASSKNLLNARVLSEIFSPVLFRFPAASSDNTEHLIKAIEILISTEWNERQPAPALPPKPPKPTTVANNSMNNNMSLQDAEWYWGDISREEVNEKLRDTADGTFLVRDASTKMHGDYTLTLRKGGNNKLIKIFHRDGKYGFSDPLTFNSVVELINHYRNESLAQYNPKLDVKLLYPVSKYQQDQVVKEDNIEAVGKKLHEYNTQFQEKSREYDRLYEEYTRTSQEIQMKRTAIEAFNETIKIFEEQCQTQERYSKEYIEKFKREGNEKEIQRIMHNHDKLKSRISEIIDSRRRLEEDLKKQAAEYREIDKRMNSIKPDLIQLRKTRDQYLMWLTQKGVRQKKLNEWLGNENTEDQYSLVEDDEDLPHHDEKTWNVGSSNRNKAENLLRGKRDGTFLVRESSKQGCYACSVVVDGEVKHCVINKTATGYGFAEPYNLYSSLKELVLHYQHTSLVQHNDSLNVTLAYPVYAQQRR

Turning to `Fc1ccc2ncnc(NCCc3ccc(Cl)cc3)c2c1` [5at, N-[2-(4-Chlorophenyl)Ethyl]-6-Fluoro-4-Quinazolinamine], the remaining activity at 10 µM at AMPKα1(h) (setting [3]) came to 85%; on MEKK3(h) (setting [3]) it was 98%; on PAK2(h) (setting [3]) it was 78%; in experiment [1] (setting [3]) it was 87%; in experiment [2] (setting [3]) it was 80%; at Pim-3(h) (setting [3]), 97%. Moreover, the remaining activity at 10 µM was determined as 92% on Rsk4(h) (setting [3]) and 130% at ZAP-70(h) (setting [3]).
For the compound `COc1ccc2ncnc(Nc3cccc(F)c3)c2c1` [5ay, N-(3-Fluorophenyl)-6-Methoxy-4-Quinazolinamine], the remaining activity at 10 µM is 100% at AMPKα1(h) (setting [4]); 83% at MEKK3(h) (setting [4]); 98% at PAK2(h) (setting [4]); 101% in experiment [1] (setting [4]); 96% in experiment [2] (setting [4]); 96% on Pim-3(h) (setting [4]). Further, the remaining activity at 10 µM at Rsk4(h) (setting [4]) was 100%; at ZAP-70(h) (setting [4]) it was 113%.
Consider `Fc1ccc(CCNc2ncnc3ccc(F)cc23)cc1` [5as, 6-Fluoro-N-[2-(4-Fluorophenyl)Ethyl]-4-Quinazolinamine], for which the remaining activity at 10 µM is 93% at AMPKα1(h) (setting [5]); 107% on MEKK3(h) (setting [5]); 94% on PAK2(h) (setting [5]); 86% in experiment [1] (setting [5]); 84% in experiment [2] (setting [5]); 92% on Pim-3(h) (setting [5]). Moreover, the remaining activity at 10 µM on Rsk4(h) (setting [5]) turned out to be 81%; on ZAP-70(h) (setting [5]), 146%.
With `Fc1ccc(CNc2ncnc3ccc(F)cc23)cc1` [5aa, 6-Fluoro-N-(4-fluorobenzyl)-4-Quinazolinamine], the remaining activity at 10 µM worked out at 110% on AMPKα1(h) (setting [6]); 93% at MEKK3(h) (setting [6]); 87% at PAK2(h) (setting [6]); 98% in experiment [1] (setting [6]); 93% in experiment [2] (setting [6]); 123% at Pim-3(h) (setting [6]). For the same compound, the remaining activity at 10 µM on Rsk4(h) (setting [6]) is 117%; at ZAP-70(h) (setting [6]) it was 146%.
